#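 Following 48 hours of exposure in 96-well plates, responses at five concentrations were used to interpolate endpoints linearly. TGI marks complete inhibition of growth.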
# Assays:
# Test in all cases: inhibition of tumour cell growth, NCI panel, 48 h
# [1] = test system: M19-MEL melanoma
# [2] = test system: RXF 393 renal
# [3] = test system: DLD-1 colon
# [4] = test system: HCT-15 colon
# [5] = test system: SNB-75 CNS
# [6] = test system: KM20L2 colon
# [7] = test system: OVCAR-8 ovarian
# [8] = test system: ACHN renal
# [9] = test system: DMS 114 small cell lung
# [10] = test system: LOX IMVI melanoma
# [11] = test system: SK-OV-3 ovarian
# [12] = test system: UACC-257 melanoma
# [13] = test system: SNB-19 CNS
# [14] = test system: MOLT-4 leukemia
# [15] = test system: SNB-78 CNS
# [16] = test system: NCI-H23 lung
# [17] = test system: COLO 205 colon
# [18] = test system: XF 498 CNS
# [19] = test system: CAKI-1 renal
# [20] = test system: UACC-62 melanoma
# [21] = test system: HOP-92 NSCLC
# [22] = test system: A549 NSCLC
# [23] = test system: HT29 colon
# [24] = test system: EKVX NSCLC
# [25] = test system: U251 CNS
# [26] = test system: DMS 273 small cell lung
# [27] = test system: SW-620 colon
# [28] = test system: RPMI-8226 leukemia
# [29] = test system: SN12C renal
# [30] = test system: OVCAR-4 ovarian
# [31] = test system: HL-60(TB) leukemia
# [32] = test system: RXF-631 renal
# [33] = test system: OVCAR-5 ovarian
# [34] = test system: NCI-H460 lung
# [35] = test system: SK-MEL-5 melanoma
# [36] = test system: SF-295 CNS
# [37] = test system: IGROV1 ovarian
# [38] = test system: M14 melanoma
# [39] = test system: CCRF-CEM leukemia
# [40] = test system: HCT-116 colon
# [41] = test system: UO-31 renal
# [42] = test system: SK-MEL-28 melanoma
# [43] = test system: HOP-18 NSCLC
# [44] = test system: TK-10 renal
# [45] = test system: K-562 leukemia
# [46] = test system: SR leukemia
# [47] = test system: OVCAR-3 ovarian
# [48] = test system: SF-539 CNS
# [49] = test system: NCI-H226 lung
# [50] = test system: LXFL 529 NSCLC
# [51] = test system: HCC-2998 colon
# [52] = test system: SF-268 CNS
# [53] = test system: A498 renal
# [54] = test system: HOP-62 NSCLC
# [55] = test system: MALME-3M melanoma
# [56] = test system: NCI-H522 lung
# [57] = test system: 786-0 renal
# [58] = test system: SK-MEL-2 melanoma
# [59] = test system: KM12 colon
smiles,measurement,setting,value
COc1cc(C2C(C(=O)O)=C(CO)Oc3cc4c(cc32)OCO4)cc(OC)c1OC (stereo unspecified),TGI,[1],> 100 µM
same,TGI,[2],> 100 µM
same,TGI,[3],> 100 µM
same,TGI,[4],> 100 µM
same,TGI,[5],> 100 µM
same,TGI,[6],> 100 µM
same,TGI,[7],> 100 µM
same,TGI,[8],> 100 µM
same,TGI,[9],> 100 µM
same,TGI,[10],> 100 µM
same,TGI,[11],> 100 µM
same,TGI,[12],> 100 µM
same,TGI,[13],> 100 µM
same,TGI,[14],> 100 µM
same,TGI,[15],> 100 µM
same,TGI,[16],> 100 µM
same,TGI,[17],> 100 µM
same,TGI,[18],> 100 µM
same,TGI,[19],> 100 µM
same,TGI,[20],> 100 µM
same,TGI,[21],> 100 µM
same,TGI,[22],> 100 µM
same,TGI,[23],> 100 µM
same,TGI,[24],> 100 µM
same,TGI,[25],> 100 µM
same,TGI,[26],> 100 µM
same,TGI,[27],> 100 µM
same,TGI,[28],> 100 µM
same,TGI,[29],> 100 µM
same,TGI,[30],> 100 µM
same,TGI,[31],> 100 µM
same,TGI,[32],> 100 µM
same,TGI,[33],> 100 µM
same,TGI,[34],> 100 µM
same,TGI,[35],> 100 µM
same,TGI,[36],> 100 µM
same,TGI,[37],> 100 µM
same,TGI,[38],> 100 µM
same,TGI,[39],> 100 µM
same,TGI,[40],> 100 µM
same,TGI,[41],> 100 µM
same,TGI,[42],> 100 µM
same,TGI,[43],> 100 µM
same,TGI,[44],> 100 µM
same,TGI,[45],> 100 µM
COC(=O)C(C(=O)C(=O)Nc1nc(=S)[nH][nH]1)c1csc(N)n1 (stereo unspecified),TGI,[1],> 100 µM
same,TGI,[2],> 100 µM
same,TGI,[3],> 100 µM
same,TGI,[46],> 100 µM
same,TGI,[4],> 100 µM
same,TGI,[5],> 100 µM
same,TGI,[6],> 100 µM
same,TGI,[7],> 100 µM
same,TGI,[8],> 100 µM
same,TGI,[47],> 100 µM
same,TGI,[48],> 100 µM
same,TGI,[49],> 100 µM
same,TGI,[10],> 100 µM
same,TGI,[11],> 100 µM
same,TGI,[50],> 100 µM
same,TGI,[12],> 100 µM
same,TGI,[13],> 100 µM
same,TGI,[14],> 100 µM
same,TGI,[15],> 100 µM
same,TGI,[16],> 100 µM
same,TGI,[17],> 100 µM
same,TGI,[18],> 100 µM
same,TGI,[19],> 100 µM
same,TGI,[20],> 100 µM
same,TGI,[22],> 100 µM
same,TGI,[23],> 100 µM
same,TGI,[51],> 100 µM
same,TGI,[24],> 100 µM
same,TGI,[25],> 100 µM
same,TGI,[26],> 100 µM
same,TGI,[52],> 100 µM
same,TGI,[53],> 100 µM
same,TGI,[54],> 100 µM
same,TGI,[27],> 100 µM
same,TGI,[28],> 100 µM
same,TGI,[29],> 100 µM
same,TGI,[30],> 100 µM
same,TGI,[31],> 100 µM
same,TGI,[32],> 100 µM
same,TGI,[33],> 100 µM
same,TGI,[55],> 100 µM
same,TGI,[34],> 100 µM
same,TGI,[35],> 100 µM
same,TGI,[56],> 100 µM
same,TGI,[36],> 100 µM
same,TGI,[37],> 100 µM
same,TGI,[38],> 100 µM
same,TGI,[39],> 100 µM
same,TGI,[40],> 100 µM
same,TGI,[41],> 100 µM
same,TGI,[57],> 100 µM
same,TGI,[42],> 100 µM
same,TGI,[43],> 100 µM
same,TGI,[58],> 100 µM
same,TGI,[44],> 100 µM
same,TGI,[59],> 100 µM
same,TGI,[45],> 100 µM
CCc1ccccc1N1C(=O)C(=O)C(c2nc3ccccc3s2)C(=O)C1=O,TGI,[1],> 100 µM
same,TGI,[2],> 100 µM
same,TGI,[3],> 100 µM
same,TGI,[46],> 100 µM
same,TGI,[4],> 100 µM
same,TGI,[6],> 100 µM
same,TGI,[7],> 100 µM
same,TGI,[8],> 100 µM
same,TGI,[47],> 100 µM
same,TGI,[9],> 100 µM
same,TGI,[48],> 100 µM
same,TGI,[49],> 100 µM
same,TGI,[10],> 100 µM
same,TGI,[11],> 100 µM
same,TGI,[50],> 100 µM
same,TGI,[12],> 100 µM
same,TGI,[13],> 100 µM
same,TGI,[14],> 100 µM
same,TGI,[15],> 100 µM
same,TGI,[16],> 100 µM
same,TGI,[18],> 100 µM
same,TGI,[19],> 100 µM
same,TGI,[20],> 100 µM
same,TGI,[21],> 100 µM
same,TGI,[22],> 100 µM
same,TGI,[23],> 100 µM
same,TGI,[51],> 100 µM
same,TGI,[24],> 100 µM
same,TGI,[25],> 100 µM
same,TGI,[52],> 100 µM
same,TGI,[54],> 100 µM
same,TGI,[27],> 100 µM
same,TGI,[28],> 100 µM
same,TGI,[29],> 100 µM
same,TGI,[30],> 100 µM
same,TGI,[31],> 100 µM
same,TGI,[32],> 100 µM
same,TGI,[33],> 100 µM
same,TGI,[55],> 100 µM
same,TGI,[34],> 100 µM
same,TGI,[35],> 100 µM
same,TGI,[56],> 100 µM
same,TGI,[36],> 100 µM
same,TGI,[37],> 100 µM
same,TGI,[38],> 100 µM
same,TGI,[39],> 100 µM
same,TGI,[40],> 100 µM
same,TGI,[41],> 100 µM
same,TGI,[57],> 100 µM
same,TGI,[42],> 100 µM
same,TGI,[43],> 100 µM
same,TGI,[58],> 100 µM
same,TGI,[44],> 100 µM
same,TGI,[59],> 100 µM
same,TGI,[45],> 100 µM
C[C@]12CCC3[C@@H](CC[C@@H]4c5nonc5CC[C@]34C)C1CCC2=O (stereo partly specified),TGI,[1],52.8 µM
same,TGI,[2],78.3 µM
same,TGI,[4],> 100 µM
same,TGI,[5],93.6 µM
same,TGI,[6],> 100 µM
same,TGI,[7],> 100 µM
same,TGI,[8],77.7 µM
same,TGI,[47],40.4 µM
same,TGI,[9],53.9 µM
same,TGI,[48],45.9 µM
same,TGI,[49],62.7 µM
same,TGI,[10],39.5 µM
same,TGI,[11],> 100 µM
same,TGI,[50],59.8 µM
same,TGI,[12],40.4 µM
same,TGI,[13],> 100 µM
same,TGI,[14],61 µM
same,TGI,[15],99.7 µM
same,TGI,[16],92.5 µM
same,TGI,[17],33.3 µM
same,TGI,[18],44.4 µM
same,TGI,[19],95.5 µM
same,TGI,[20],52.3 µM
same,TGI,[21],51.5 µM
same,TGI,[22],92.4 µM
same,TGI,[23],41.1 µM
same,TGI,[24],83.1 µM
same,TGI,[25],32.5 µM
same,TGI,[26],47.1 µM
same,TGI,[52],> 100 µM
same,TGI,[53],68.2 µM
same,TGI,[54],> 100 µM
same,TGI,[27],> 100 µM
same,TGI,[28],44 µM
same,TGI,[29],47.3 µM
same,TGI,[30],84 µM
same,TGI,[31],38.9 µM
same,TGI,[32],> 100 µM
same,TGI,[33],> 100 µM
same,TGI,[55],52.6 µM
same,TGI,[34],39.7 µM
same,TGI,[35],31.4 µM
same,TGI,[56],50.1 µM
same,TGI,[36],79.3 µM
same,TGI,[37],> 100 µM
same,TGI,[38],37 µM
same,TGI,[39],61.3 µM
same,TGI,[40],31.7 µM
same,TGI,[41],39 µM
same,TGI,[57],64.3 µM
same,TGI,[42],63.8 µM
same,TGI,[43],> 100 µM
same,TGI,[58],56.5 µM
same,TGI,[44],> 100 µM
same,TGI,[59],50.2 µM
same,TGI,[45],> 100 µM
CCOc1ccc(NC(=O)CC2C(=O)Nc3ccccc3S2=O)cc1 (stereo unspecified),TGI,[1],> 100 µM
same,TGI,[2],66.9 µM
same,TGI,[3],> 100 µM
same,TGI,[46],> 88.5 µM
same,TGI,[4],> 100 µM
same,TGI,[5],50.6 µM
same,TGI,[6],> 46.4 µM
same,TGI,[7],> 85.8 µM
same,TGI,[8],> 86.7 µM
same,TGI,[47],> 78.7 µM
same,TGI,[48],> 100 µM
same,TGI,[49],> 86.7 µM
same,TGI,[10],> 100 µM
same,TGI,[11],> 100 µM
same,TGI,[50],> 100 µM
same,TGI,[12],> 100 µM
same,TGI,[13],> 89.3 µM
same,TGI,[14],> 100 µM
same,TGI,[15],> 100 µM
same,TGI,[16],> 100 µM
same,TGI,[17],> 100 µM
same,TGI,[18],74.4 µM
same,TGI,[19],> 92.9 µM
same,TGI,[20],> 46.4 µM
same,TGI,[21],> 70.6 µM
same,TGI,[22],> 100 µM
same,TGI,[23],> 100 µM
same,TGI,[51],> 100 µM
same,TGI,[24],> 46.4 µM
same,TGI,[25],> 75.4 µM
same,TGI,[26],> 100 µM
same,TGI,[52],> 100 µM
same,TGI,[53],> 78.5 µM
same,TGI,[54],> 100 µM
same,TGI,[27],> 100 µM
same,TGI,[28],> 100 µM
same,TGI,[29],> 100 µM
same,TGI,[30],> 70.2 µM
same,TGI,[31],> 100 µM
same,TGI,[32],> 100 µM
same,TGI,[33],> 100 µM
same,TGI,[55],> 100 µM
same,TGI,[34],> 100 µM
same,TGI,[35],> 100 µM
same,TGI,[56],> 100 µM
same,TGI,[36],> 100 µM
same,TGI,[37],> 100 µM
same,TGI,[38],> 100 µM
same,TGI,[39],> 100 µM
same,TGI,[40],> 100 µM
same,TGI,[41],> 83.1 µM
same,TGI,[57],> 76.6 µM
same,TGI,[42],> 100 µM
same,TGI,[43],> 100 µM
same,TGI,[58],> 100 µM
same,TGI,[44],> 96.2 µM
same,TGI,[59],> 100 µM
same,TGI,[45],> 100 µM
